Source: ChEMBL document CHEMBL6071160, “Identification of a novel 10-hydroxyevodiamine prodrug as a potent topoisomerase inhibitor with improved aqueous solubility for treatment of hepatocellular carcinoma” (Eur J Med Chem, 2024)
Calls of active or inactive are those of the source. The calls are words filed in the database; no cut-off is given here.

Columns and labels:
Huh-7 [1] = test: Induction of cell cycle arrest in human Huh-7 cells assessed as accumulation of cells at G1 phase 40 nM measured after 24 hrs by flow cytometric assay (reference value: 63.01%); assay type: functional
Huh-7 [2] = test: Induction of cell cycle arrest in human Huh-7 cells assessed as accumulation of cells at G2 phase 40 nM measured after 24 hrs by flow cytometric assay (reference value: 13.66%); assay type: functional
Huh-7 [3] = test: Induction of apoptosis in human Huh-7 cells assessed as necrotic cells at 40 nM measured after 24 hrs by Annexin-V-FITC/PI analysis (reference value: 0.27%); assay type: functional
SK-HEP1 [4] = test: Induction of apoptosis in human SK-HEP1 cells assessed as viable cells at 80 nM measured after 24 hrs by Annexin-V-FITC/PI analysis (reference value: 97.20%); assay type: functional; conditions: read-out: Activity
SK-HEP1 [5] = test: Induction of apoptosis in human SK-HEP1 cells assessed as early apoptotic cells at 40 nM measured after 24 hrs by Annexin-V-FITC/PI analysis (reference value: 1.45%); assay type: functional
SK-HEP1 [6] = test: Inhibition of cell invasion in human SK-HEP1 cells assessed as decrease in number of cells migration into lower compartment at 20 nM measured after 24 hrs by transwell assay; assay type: functional, cell-based

For `C[N+](C)(C)CCC(=O)Oc1ccc2[nH]c3c(c2c1)CCN1C(=O)c2cc(F)cc(F)c2N(c2cccc(F)c2)C31.[I-]` (stereo unspecified), the Activity (Huh-7 [1]) was 66.98%, the Activity (Huh-7 [2]) was 11.72% and the Activity (Huh-7 [3]) was 0.04%. The viability at 0.08 µM (SK-HEP1 [4]) was 64.7%, the Activity (SK-HEP1 [5]) was 5.11% and the inhibition (SK-HEP1 [6]) was “Active”.
